Literature values as cited in patent US11191849B2, “Compositions and methods for delivering messenger RNA” (ARBUTUS BIOPHARMA CORPORATION, priority 2016, dated 2021).

SMILES | log P
CC(C)C(=O)OCC(=O)[C@@]12O[C@H](C3CCCCC3)O[C@@H]1C[C@H]1[C@@H]3CCC4=CC(=O)C=C[C@]4(C)[C@H]3[C@@H](O)C[C@@]12C [Ciclesonide] | ~5.3
CCC(=O)O[C@]1(C(=O)CCl)[C@@H](C)C[C@H]2[C@@H]3CCC4=CC(=O)C=C[C@]4(C)[C@@]3(F)[C@@H](O)C[C@@]21C [Clobetasol, clobetasol-17-propionate] | ~3.5
CCCCCCCCCCCCCCCC(=O)OCC(=O)[C@@]1(O)[C@H](C)C[C@H]2[C@@H]3CCC4=CC(=O)C=C[C@]4(C)[C@@]3(F)[C@@H](O)C[C@@]21C [Dex-P, Dexamethasone 21-palmitate] | ~9
